# Measured values published in patent publication US8044089B2, “3-3-di-substituted-oxindoles as inhibitors of translation initiation” (President and Fellows of Harvard College, priority 2004, dated 2011).
# System: A549 lung cancer cells
# Assay: SRB growth inhibition of A549 lung cancer cells
# Type: cell-based, human
# Details: A549 lung cancer cells; unit inferred; read-out: SRB (IC50 for growth inhibition of A549 lung cancer cells)
row,SMILES,IC50 [µM]
1,COC(=O)c1cccc2c1NC(=O)C2(c1ccccc1)c1ccccc1 [Compound 1354],> 20
2,Nc1ccc(CCNC(=O)c2ccc(Cl)c3c2NC(=O)C3(c2ccccc2)c2ccccc2)cc1 [Compound 1355],5
3,CC(C)(C)c1ccc(OCC(=O)O)c(C2(c3ccccc3)C(=O)Nc3ccccc32)c1 (stereo not drawn) [Compound 1397],8
4,CC(C)CC(NC(=O)COc1ccc(C(C)(C)C)cc1C1(c2ccccc2)C(=O)Nc2ccccc21)C(=O)NC(CO)Cc1ccccc1 (stereo not drawn) [Compound 1400],3
5,O=C1Nc2c(Cn3ccnc3)ccc(Cl)c2C1(c1ccccc1)c1ccccc1 [Compound 1401],> 20
6,COC(=O)COc1ccc(C(C)(C)C)cc1C1(c2ccccc2)C(=O)Nc2ccccc21 (stereo not drawn) [Compound 1402],9
7,CC(C)(C)c1ccc(O)c(C2(c3ccccc3)C(=O)Nc3c(C(=O)O)cccc32)c1 (stereo not drawn) [Compound 1408],> 20
8,CC(C)(C)c1ccc(O)c(C2(c3ccccc3)C(=O)Nc3c(C(=O)O)ccc(Cl)c32)c1 (stereo not drawn) [Compound 1418],16

# The remaining lines, values ahead:
row,IC50 [µM],SMILES
1,9,Cc1cc(C2(c3ccccc3)C(=O)Nc3c(C(=O)O)cccc32)c(NC(=O)OCC2c3ccccc3-c3ccccc32)cc1O (stereo not drawn) [Compound 1394]
2,4,Cc1cc(C2(c3ccccc3)C(=O)Nc3ccccc32)c(NS(=O)(=O)Cc2ccccc2)cc1O (stereo not drawn) [Compound 1405]
3,> 20,Cc1cc(C2(c3ccccc3)C(=O)Nc3c(C(=O)O)cccc32)c(NS(C)(=O)=O)cc1O (stereo not drawn) [Compound 1417]
4,3,Cc1cc(C2(c3ccccc3)C(=O)Nc3ccccc32)c(NS(=O)(=O)c2cccc(C(F)(F)F)c2)cc1O (stereo not drawn) [Compound 1514]
5,5,Cc1cc(C2(c3ccccc3)C(=O)Nc3ccccc32)c(NS(=O)(=O)c2ccc([N+](=O)[O-])cc2)cc1O (stereo not drawn) [Compound 1589]
6,5,COc1ccc(S(=O)(=O)Nc2cc(O)c(C)cc2C2(c3ccccc3)C(=O)Nc3ccccc32)cc1 (stereo not drawn) [Compound 1590]
7,3,Cc1cc(C2(c3ccccc3)C(=O)Nc3ccccc32)c(NS(=O)(=O)c2ccc(Br)cc2)cc1O (stereo not drawn) [Compound 1591]
8,3,Cc1cc(C2(c3ccccc3)C(=O)Nc3ccccc32)c(NS(=O)(=O)c2ccc(I)cc2)cc1O (stereo not drawn) [Compound 1592]

# System: intracellular Ca^2+ stores
# Assay: Ca2+ release from intracellular stores (FURA-2AM loaded cells)
# Type: cell-based
# Parameters: key to Ca^2+ (Ca^2+ release from intracellular stores): a “+” denotes release; a “+/−” denotes inconclusive
# Details: not given
# Summary of the method: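 Ca2+ release scored in FURA-2AM loaded cells as "+" (release) or "+/−" (inconclusive); some compounds also tested with ER-targeted FRET Ca2+ sensors. Ca2+-depleting compounds were then tested for eIF2α phosphorylation by Western blot with phospho-specific anti-eIF2α antibody.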
row,SMILES,Ca^2+ (Ca^2+ release from intracellular stores)
1,COC(=O)c1cccc2c1NC(=O)C2(c1ccccc1)c1ccccc1 [Compound 1354],+
2,Nc1ccc(CCNC(=O)c2ccc(Cl)c3c2NC(=O)C3(c2ccccc2)c2ccccc2)cc1 [Compound 1355],+/−
3,Cc1cc(C2(c3ccccc3)C(=O)Nc3c(C(=O)O)cccc32)c(NC(=O)OCC2c3ccccc3-c3ccccc32)cc1O (stereo not drawn) [Compound 1394],+
4,CC(C)(C)c1ccc(OCC(=O)O)c(C2(c3ccccc3)C(=O)Nc3ccccc32)c1 (stereo not drawn) [Compound 1397],+
5,CC(C)CC(NC(=O)COc1ccc(C(C)(C)C)cc1C1(c2ccccc2)C(=O)Nc2ccccc21)C(=O)NC(CO)Cc1ccccc1 (stereo not drawn) [Compound 1400],+
6,O=C1Nc2c(Cn3ccnc3)ccc(Cl)c2C1(c1ccccc1)c1ccccc1 [Compound 1401],+/−
7,COC(=O)COc1ccc(C(C)(C)C)cc1C1(c2ccccc2)C(=O)Nc2ccccc21 (stereo not drawn) [Compound 1402],+
8,Cc1cc(C2(c3ccccc3)C(=O)Nc3ccccc32)c(NS(=O)(=O)Cc2ccccc2)cc1O (stereo not drawn) [Compound 1405],+
9,CC(C)(C)c1ccc(O)c(C2(c3ccccc3)C(=O)Nc3c(C(=O)O)cccc32)c1 (stereo not drawn) [Compound 1408],+
10,Cc1cc(C2(c3ccccc3)C(=O)Nc3c(C(=O)O)cccc32)c(NS(C)(=O)=O)cc1O (stereo not drawn) [Compound 1417],+
11,CC(C)(C)c1ccc(O)c(C2(c3ccccc3)C(=O)Nc3c(C(=O)O)ccc(Cl)c32)c1 (stereo not drawn) [Compound 1418],+
12,Cc1cc(C2(c3ccccc3)C(=O)Nc3ccccc32)c(NS(=O)(=O)c2cccc(C(F)(F)F)c2)cc1O (stereo not drawn) [Compound 1514],+
13,Cc1cc(C2(c3ccccc3)C(=O)Nc3ccccc32)c(NS(=O)(=O)c2ccc([N+](=O)[O-])cc2)cc1O (stereo not drawn) [Compound 1589],+
14,COc1ccc(S(=O)(=O)Nc2cc(O)c(C)cc2C2(c3ccccc3)C(=O)Nc3ccccc32)cc1 (stereo not drawn) [Compound 1590],+
15,Cc1cc(C2(c3ccccc3)C(=O)Nc3ccccc32)c(NS(=O)(=O)c2ccc(Br)cc2)cc1O (stereo not drawn) [Compound 1591],+
16,Cc1cc(C2(c3ccccc3)C(=O)Nc3ccccc32)c(NS(=O)(=O)c2ccc(I)cc2)cc1O (stereo not drawn) [Compound 1592],+

# System: eIF2α
# Assay: eIF2α phosphorylation measured by Western blot
# Type: cell-based
# Details: Western blot; unit or reference not given
# Text: As a non-limiting example, compounds 1272 and 1273 (set forth in Table 1) were synthesized starting from 3-bromoaniline, which upon condensation with hydroxylamine and chloral hydrate followed by concentrated sulfuric acid yielded an inseparable regioisomeric mixture of 4- and 6-bromo isatins. The addition of the two phenyl groups to the three position of the oxindole allowed easy chromatographic separation of the 4- and 6-bromo-3,3-diphenyloxindoles 1272 and 1273. Table 1 sets forth biological data for diaryloxindole compounds including, but not limited to 1272 and 1273. For Tables 1-14, Ca^2+ refers to Ca^2+ release from intracellular stores where a “+” denotes release and a “+/−” denotes inconclusive; eIF2α-P refers to phosphorylation of eIF2α measured by Western blot; SRB refers to the inhibitory concentration to reduce cell growth by 50% (IC50) for growth inhibition of A549 lung cancer cells; and n.d. is not determined.
# Without intending to be bound by theory, the mechanism of action of translation initiation inhibitors is set forth in FIG. 1, and includes the depletion (complete or partial depletion) of intracellular calcium (Ca^2+) stores and phosphorylation of eIF2α. Compounds synthesized using the approaches described herein were screened for their ability to partially deplete intracellular Ca^2+ stores using FURA-2AM loaded cells (Benzaquen et al. (1995) Nature Medicine, 1:534, incorporated herein by reference in its entirety for all purposes). A limited subset of compounds were further screened for their ability to deplete endoplasmic reticulum (ER) Ca^2+. The Ca^2+ content of the ER was monitored using ER-targeted, Ca^2+ sensitive, recombinant proteins. These recombinant proteins emitted light by fluorescent resonance energy transfer (FRET) as a function of the Ca^2+ content of the medium. Such assays are previously described (Miyawaki, A.; Mizuno, H.; Llopis, J.; Tsien, R. Y.; Jalink, K. Cameleons as cytosolic and intra-organellar calcium probes, Oxford University Press: Oxford, London, 2001; pp 3-16, incorporated herein by reference in its entirety for all purposes). Compounds that depleted Ca^2+ were further evaluated for their ability to phosphorylate eIF2α. eIF2α phosphorylation was measured by Western blot analysis using the phospho-specific anti-eIF2α antibody, as previously described (Aktas et al. (1998) Proc. Natl. Acad. Sci. USA, 95:8280, incorporated herein by reference in its entirety for all purposes).
row,SMILES,eIF2α-P (phosphorylation of eIF2α measured by Western blot)
1,COC(=O)c1cccc2c1NC(=O)C2(c1ccccc1)c1ccccc1 [Compound 1354],1.74
2,Nc1ccc(CCNC(=O)c2ccc(Cl)c3c2NC(=O)C3(c2ccccc2)c2ccccc2)cc1 [Compound 1355],3.80
3,Cc1cc(C2(c3ccccc3)C(=O)Nc3c(C(=O)O)cccc32)c(NC(=O)OCC2c3ccccc3-c3ccccc32)cc1O (stereo not drawn) [Compound 1394],8.21
4,CC(C)(C)c1ccc(OCC(=O)O)c(C2(c3ccccc3)C(=O)Nc3ccccc32)c1 (stereo not drawn) [Compound 1397],1.46
5,CC(C)CC(NC(=O)COc1ccc(C(C)(C)C)cc1C1(c2ccccc2)C(=O)Nc2ccccc21)C(=O)NC(CO)Cc1ccccc1 (stereo not drawn) [Compound 1400],3.70
6,O=C1Nc2c(Cn3ccnc3)ccc(Cl)c2C1(c1ccccc1)c1ccccc1 [Compound 1401],2.56
7,COC(=O)COc1ccc(C(C)(C)C)cc1C1(c2ccccc2)C(=O)Nc2ccccc21 (stereo not drawn) [Compound 1402],3.94
8,Cc1cc(C2(c3ccccc3)C(=O)Nc3ccccc32)c(NS(=O)(=O)Cc2ccccc2)cc1O (stereo not drawn) [Compound 1405],1.84
9,CC(C)(C)c1ccc(O)c(C2(c3ccccc3)C(=O)Nc3c(C(=O)O)cccc32)c1 (stereo not drawn) [Compound 1408],2.08
10,Cc1cc(C2(c3ccccc3)C(=O)Nc3c(C(=O)O)cccc32)c(NS(C)(=O)=O)cc1O (stereo not drawn) [Compound 1417],0.96
11,CC(C)(C)c1ccc(O)c(C2(c3ccccc3)C(=O)Nc3c(C(=O)O)ccc(Cl)c32)c1 (stereo not drawn) [Compound 1418],7.47
12,Cc1cc(C2(c3ccccc3)C(=O)Nc3ccccc32)c(NS(=O)(=O)c2cccc(C(F)(F)F)c2)cc1O (stereo not drawn) [Compound 1514],1.65
13,Cc1cc(C2(c3ccccc3)C(=O)Nc3ccccc32)c(NS(=O)(=O)c2ccc([N+](=O)[O-])cc2)cc1O (stereo not drawn) [Compound 1589],1
14,COc1ccc(S(=O)(=O)Nc2cc(O)c(C)cc2C2(c3ccccc3)C(=O)Nc3ccccc32)cc1 (stereo not drawn) [Compound 1590],1.12
15,Cc1cc(C2(c3ccccc3)C(=O)Nc3ccccc32)c(NS(=O)(=O)c2ccc(Br)cc2)cc1O (stereo not drawn) [Compound 1591],3.30
16,Cc1cc(C2(c3ccccc3)C(=O)Nc3ccccc32)c(NS(=O)(=O)c2ccc(I)cc2)cc1O (stereo not drawn) [Compound 1592],5.19
